The target of the assay is TNFα trimer (Homo sapiens, UniProt P01375). The assay can be described thus: TNFα FP Competitive Binding Assay. The settings on record: FP binding assay; 20 nM TNFα trimer, 1 nM OregonGreen488 probe; read-out: TNF IC50. The protocol: TNFα FP Competitive Binding Assay
• 1. Assay Buffer: Prepare 1× Assay Buffer (Water with 47 mM HEPES, 47 mM NaCl, 0.9 mM EDTA, 0.0071% Triton X-100) by adding 25 mL of 1 M HEPES, 5 mL of 5 M NaCl, 1 mL of 0.5 M EDTA, and 375 μL of a 10% Triton X-100 stock to a fresh 500 mL bottle of water. • 2. Assay Mixture: Prepare fresh Assay Mixture containing 20 nM TNFα trimer (60 nM protein) and 1 nM 2′,7′-difluoro-3′,6′-dihydroxy-N-(2-(2-(2-((4-(isoquinolin-8-yl)-3-(4-(isoquinolin-8-yl)phenethoxy)benzyl)oxy)ethoxy)ethoxy)ethyl)-3-oxo-3H-spiro[isobenzofuran-1,9′-xanthene]-5-carboxamide probe in 1× Assay Buffer. Compound Plate Preparation Manual 12-Point 1:3 Dilution Plates: (384 Well Polypropylene Plates)
Top concentration of compounds, 10 mM in DMSO, dispensed in rows A-O in columns 1 and 13. Compounds are serially diluted 1:3 with DMSO in columns 2-12 or 14-24 using a 16-channel Matrix pipettor. Plates stored at −20° C.
Discovery Preps 12-Point 1:3 Dilution Plates: (384 Well Assay Plates)
Top concentration, 5 mM in DMSO, of compounds placed in rows A-O in columns 1 and 13. Compounds are serially diluted 1:3 with DMSO in columns 2-12 or 14-24. Compound solutions are dispensed into replicate assay plates at 410 nL per well. Plates stored at 4° C.
TNFα FP Competitive Binding Assay Protocol
• 1. Compound plates warmed to rt. • 2. Fresh Assay Mixture is prepared. • 3. Assay Mixture (20 μL) is dispensed each well of 384 assay plates using a Thermo Multidrop Combi or 16-channel Matrix pipettor. If Manual 12-point 1:3 Dilution Plates are to be tested, Assay Mix is dispensed into empty plates. Discovery Preps 12-point 1:3 Dilution Plates already contain 410 nL compound solution in DMSO. • 4. For Manual 12-point 1:3 Dilution Plates, 0.7 μL is manually transferred using a 16-channel Matrix pipettor to replicate assay plates containing 20 μL Assay Mixture for a final top compound concentration of 338 μM (3.4% DMSO). • 5. For Discovery Preps 12-point 1:3 Dilution Plates, 20 μL Assay Mixture added the 410 nL compound solution already in the plates yields a final top compound concentration of 100 μM (2.0% DMSO). • 6. Background subtraction controls are wells P1-P8 containing only Assay Buffer. The low % inhibition controls are wells P9-P16 containing only Assay Mix. The high % inhibition are wells P17-P24 containing only 1 nM 2′,7′-difluoro-3′,6′-dihydroxy-N-(2-(2-(2-((4-(isoquinolin-8-yl)-3-(4-(isoquinolin-8-yl)phenethoxy)benzyl)oxy)ethoxy)ethoxy)ethyl)-3-oxo-3H-spiro[isobenzofuran-1,9′-xanthene]-5-carboxamide probe in 1× Assay Buffer. • 7. Plates are incubated at rt for 18-24 h in 37° C. incubator (CO2 is off). • 8. Prior to reading the assay, the plates are placed in a dark cabinet to equilibrate at rt for one hour. • 9. Background-subtracted fluorescence polarization (mP) is measured using a PerkinElmer Envision plate reader. • 10. Raw data is entered into Assay Explorer and dose-response curves are generated using a variable slope curve. Supplies, Materials, and Reagents

One may read the IC50 as the concentration that gives 50% inhibition.

Chain of TNFα trimer (P01375 77-233 limits assumed): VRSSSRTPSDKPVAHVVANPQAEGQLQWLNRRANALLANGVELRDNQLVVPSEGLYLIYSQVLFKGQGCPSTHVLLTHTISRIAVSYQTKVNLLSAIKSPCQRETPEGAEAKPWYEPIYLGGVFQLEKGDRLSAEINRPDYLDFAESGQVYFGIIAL

Turning to `Cc1ccc(OC(F)F)c(Cn2c3cc(-c4cnc(N5C[C@@H]6CNC(=O)[C@@H]6C5)nc4)ccc3c(=O)n2C)c1` (racemic) [Example 20.3], the IC50 lay in the range of 1 to 10 µM.

`Cn1c(=O)c2ccc(-c3cnc(C(C)(C)O)nc3)cc2n1Cc1cc([C@H]2CC[C@@H](C#N)C2)ccc1OC(F)F` (racemic) [Example 96, rac-(R,3S)-3-(4-(Difluoromethoxy)-3-((6-(2-(2-hydroxypropan-2-yl)pyrimidin-5-yl)-2-methyl-3-oxo-2,3-dihydro-1H-indazol-1-yl)methyl)phenyl)cyclopentane-1-carbonitrile]: the IC50 lay in the range of 1 to 10 µM.

As for `Cn1c(=O)c2ccc(-c3cnc(C(C)(C)O)nc3)cc2n1Cc1cc([C@H]2CC[C@@H](C#N)C2)ccc1OC(F)F` (racemic) [Example 97], the half-inhibitory concentration (IC50) is < 1 µM.

In the case of `Cc1ccc(OC(F)F)c(Cn2c3cc(-c4cnn5c(C(C)O)cnc5c4)ccc3c(=O)n2C)c1` (racemic) [Example 106, 1-(2-(Difluoromethoxy)-5-methylbenzyl)-6-(3-(1-hydroxyethyl)imidazo[1,2-b]pyridazin-7-yl)-2-methyl-1H-indazol-3(2H)-one], the IC50 was < 1 µM.

Regarding `Cn1c(=O)c2ccc(-c3cnc(C(C)(C)O)nc3)cc2n1Cc1cc([C@@H]2CCC[C@@H]2C#N)ccc1OC(F)F` (relative stereo) [Example 112, 2-(4-(Difluoromethoxy)-3-((6-(2-(2-hydroxypropan-2-yl)pyrimidin-5-yl)-2-methyl-3-oxo-2,3-dihydro-1H-indazol-1-yl)methyl)phenyl)cyclopentanecarbonitrile], the IC50 fell in the range of 1 to 10 µM.

For the molecule `Cn1c(=O)c2ccc(-c3cnc(N4CCN5C(=O)NC[C@@H]5C4)nc3)cc2n1Cc1ccccc1OC(F)F` (single isomer, unassigned) [Example 6], the half-maximal inhibitory concentration (IC50) is < 1 µM.

Regarding `Cn1c(=O)c2ccc(-c3cnc(N4CCN5C(=O)NC[C@H]5C4)nc3)cc2n1Cc1ccccc1OC(F)F` (single isomer, unassigned) [Example 7], the IC50 is < 1 µM.

As to `Cc1ccc(OC(F)F)c(Cn2c3cc(-c4cnc(N5CCN6C(=O)NCC6C5)nc4)ccc3c(=O)n2C)c1` (single isomer, unassigned) [Example 8], the concentration for half-maximal inhibition (IC50) is < 1 µM.

Turning to `Cn1c(=O)c2ccc(-c3cnc(N[C@H]4CCNC(=O)C4)nc3)cc2n1Cc1cc(CO)ccc1OC(F)F` (single isomer, unassigned) [Example 25], the IC50 was < 1 µM.

With `Cn1c(=O)c2ccc(-c3cnc(N[C@@H]4CCNC(=O)C4)nc3)cc2n1Cc1cc(CO)ccc1OC(F)F` (single isomer, unassigned) [Example 26], the IC50 was < 1 µM.

Consider `CN1CC[C@H](Nc2ncc(-c3ccc4c(=O)n(C)n(Cc5cc(CO)ccc5OC(F)F)c4c3)cn2)CC1=O` (single isomer, unassigned) [Example 27], for which the half-inhibitory concentration (IC50) was in the range of 1 to 10 µM.

As for `CN1CC[C@@H](Nc2ncc(-c3ccc4c(=O)n(C)n(Cc5cc(CO)ccc5OC(F)F)c4c3)cn2)CC1=O` (single isomer, unassigned) [Example 28], the IC50 was < 1 µM.

Consider `CC(=O)N1CCN(c2ncc(-c3ccc4c(=O)n(C)n(Cc5cc(C)ccc5OC(F)F)c4c3)cn2)C[C@H]1C` (single isomer, unassigned) [Example 54], for which the concentration for half-maximal inhibition (IC50) was < 1 µM.

For `CC(=O)N1CCN(c2ncc(-c3ccc4c(=O)n(C)n(Cc5cc(C)ccc5OC(F)F)c4c3)cn2)C[C@@H]1C` (single isomer, unassigned) [Example 55], the IC50 is < 1 µM.

With `C[C@@H]1CN(c2ncc(-c3ccc4c(=O)n(C)n([C@@H](C)c5c(F)cccc5F)c4c3)cn2)CCN1C(=O)CO` (single isomer, unassigned) [Example 58], the IC50 was < 1 µM.

Consider `C[C@@H]1CN(c2ncc(-c3ccc4c(=O)n(C)n([C@@H](C)c5ccccc5F)c4c3)cn2)CCN1C(=O)CO` (single isomer, unassigned) [Example 85], for which the IC50 is < 1 µM.

With `C[C@@H]1CN(c2ncc(-c3ccc4c(=O)n(C)n([C@H](C)c5ccccc5F)c4c3)cn2)CCN1C(=O)CO` (single isomer, unassigned) [Example 86], the IC50 fell in the range of 1 to 10 µM.

(Values after patent publication US10160748B2 (AbbVie Inc., priority 2015, dated 2018).)
